Results: patent US20200270309A1, “MALEIMIDE GROUP-MODIFIED ANGIOGENESIS INHIBITOR HM-1 AND USE THEREOF” (NANJING ANJI BIOLOGICAL TECHNOLOGY CO., LTD, priority 2017, published 2020)
Marks after values point to notes of the source that are not given here. Peptide text beside a SMILES is read from it. * marks the point of attachment. X68 = O=C1C=CC(=O)N1c1ccccc1CCCCCCCCCCCC(=O)*; X52 = O=C1C=CC(=O)N1c1ccccc1CCCCCCCC(=O)*; X49 = O=C1C=CC(=O)N1c1ccccc1CCCCCC(=O)*; X79 = O=C1C=CC(=O)N1c1cccc(CCC(=O)*)c1

Assays:
[1] = system: retinal vascular endothelial nuclei; assay: Neovascularization in a rat model of premature retinopathy; assay type: in vivo, rats; conditions: for Nuclei count (retinal vascular endothelial nuclei, average per section per eyeball): dose 0.05 μM in the vitreous chamber from day 7 of modeling for one week, counted on day 14, oxygen-induced neonatal rats
Method: Using a fluctuating oxygen-induced animal model, newborn rats born naturally on the same day (within 12 h) were randomly divide into three groups: an oxygen model group, an oxygen treatment group and a normal control group. The oxygen model was further divided into three sub-group model groups, and the sub-group model groups and the treatment group were all placed in a semi-closed oxygen chamber made of organic glass; medical oxygen was introduced into the chamber, and the concentration was adjusted to 80%±2% by an oxygen meter; nitrogen was introduced into the oxygen chamber after 24 h, and the oxygen concentration was adjusted to 10%±2% rapidly and maintained for 24 h. This was repeated to keep the oxygen concentration in the oxygen chamber alternating between 80% and 10% every 24 h, the oxygen concentration was maintained for 7 d, and then the rats were fed in the air. The oxygen concentration was monitored 8 times a day, and the ambient temperature in the chamber was controlled at 23° C.±2° C. Bedding was replaced, feed was added, and water and mother rats were replaced once. The normal control group was placed in the animal room feeding environment. […] The oxygen treatment group was divided into three subgroups. On day 7 of modeling, X1-[…], […]-[…] and […]-X90 were injected in the vitreous chamber respectively, and the oxygen model group and the control group were only given normal saline for one week. On day 14, after the rats were anesthetized by diethyl ether and killed, eyeballs were extracted and fixed in 40 g/L paraformaldehyde solution for 24 h. Gradient dehydration by alcohol was performed, and the eyeballs were processed by xylene to be transparent. After waxing, the eyeballs were sectioned continuously to a thickness of 4μm, and the periphery of the optic disc should be avoided as much as possible. The sections were parallel to the sagittal plane from cornea to the optic disc. Ten sections of each eyeball were randomly taken and stained with hematoxylin eosin, the number of vascular endothelial nuclei that broke through the inner limiting membrane of the retina (only the number of vascular endothelial nuclei closely related to the inner limiting membrane were counted) was counted, and statistics of the average number of cells per section per eyeball was performed. Results: In the control group, there were no vascular endothelial nuclei that broke through the inner limiting membrane of the retina and grew into vitreous body, or the vascular endothelial nuclei were occasionally found in only a few sections. In the model group, there were many vascular endothelial nuclei that broke through the inner limiting membrane of the retina, some appeared alone, and some appeared in clusters. At the same time, on some sections, these vascular endothelial nuclei were also found adjacent to deep retinal vessels, confirming that they originated from the retina rather than the vitreous body or other ocular tissues. In the treatment group, only a few vascular endothelial nuclei that broke through the inner limiting membrane of retina could be seen in the sections.

[2] = system: corneal neovascularization; assay: Corneal neovascularization induced by alkali burn in BALB/c mice; assay type: in vivo; set-up: Inhibition rate (corneal neovascularization): concentration or dose not given beside the values; conditions: day 14 after alkali burn, vitreous injection once a day for 1 week
[3] = system: retinal neovascularization (OIR model); assay: Retinal vessels in OIR mice; assay type: in vivo, C57/B16 mice; conditions: for Area of neovascular plexus (mm^2): dose 0.05 μM in the vitreous chamber on day 13, retinal vessels evaluated on day 17; for Inhibition rate (%): dose 0.05 μM in the vitreous chamber on day 13, retinal vessels evaluated on day 17, vs negative control
From the text: Establishment of an OIR model: Young mice and their mothers were exposed in a 75% hyperoxic environment from day 7 to day 12 after the birth of C57/B16 mice, which caused capillaries in their central retina to disappear rapidly. The mice were returned to the indoor air on day 12, retinal vessels exposed to hyperoxia quickly disappeared, causing extensive abnormal neoangiogenesis, and the central part of the retina remained largely avascular for a long time. After the blood vessels disappeared completely, the mice were injected with normal saline (a negative group), X1-X12, X13-X44, X45-X90 in the vitreous chamber on day 13 respectively, and retinal vessels were evaluated on day 17 ([…] of Texas red labeled tomato agglutinin was injected into the left ventricle to mark unclosed vessels and circulated for 5 min).

[4] = system: human retinal capillary endothelial cells (HRCECs); assay: MTT proliferation inhibition on HRCECs; assay type: cell-based; conditions: 48 h; for A570 nm-A630 nm: mean±SD
Method: An MTT method was used to detect the inhibitory activity of the angiogenesis inhibitor polypeptide on proliferation of HRCECs. HRCECs were digested and collected with trypsin after being cultured in an incubator at 37° C. with 5% CO2 to a density of 90% or more. The cells were resuspended with a culture solution and counted under a microscope, the cell concentration was adjusted to 3.0×10^4 cells/mL, and the cell suspension was inoculated into a 96-well plate at 100 μL/well, and cultured overnight in an incubator at 37° C. with 5% CO2. After the cells were completely adhered to the wall, cells with the addition of the angiogenesis inhibitor polypeptide were used as administration groups, cells with the addition of Avastin were used as a positive control group, and cells with the addition of culture solution without any drugs were used as a blank control group. The cells were diluted to respective predetermined concentrations with the culture solution. The diluent were added into 96-well plates respectively at 100 μL per well, and the cells were cultured at 37° C. for 48 h in an incubator with 5% CO2. 20 μL of 5 mg/mL MTT was added into each well of the 96-well plate, and the cultivation was continued for 4 h. The culture medium was removed, and 100 μL of DMSO was added to each well for dissolution. The absorbance was measured at a detection wavelength of 570 nm and a reference wavelength of 630 nm using a microplate reader, and the PIR was calculated by the formula as follows:
PIR (%)=1−administration group/negative group
The experiment was repeated independently three times. The results were expressed as mean±SD, and statistical T test was conducted. *P<0.05 indicates significant difference, and **P<0.01 indicates extremely significant difference.

[5] = system: IL-1β production by mouse peritoneal macrophages; assay: IL-1β production by mouse peritoneal macrophages (ELISA); assay type: cell-based; conditions: for Inhibition rate: IL-1β production, vs model group; for IL-1β: mouse peritoneal macrophages, 48 h, ELISA
Method: Mice were injected intraperitoneally with 1 mL of broth culture medium (containing 6% of starch). Three days later, mice peritoneal macrophages were taken aseptically and washed twice with 1640 culture medium, and the cell concentration was adjusted to 2×10^6 cells/mL. The solutions were injected into 24-well culture plates at 1 mL per well. The cells were incubated in a cell incubator for 3 h and vibrated once every 30 min to make the cells fully adhere to the wall. Then, the cells were washed twice with a culture solution to remove non-adhered cells. PBS was added to the blank group, positive drug Dex was added to the positive group, no drug was added to the model group, and polypeptides X1-X90 with low, medium and high concentrations were added to the test groups; and the cells were continuously cultured for 48 h after administration, and then centrifuged at 1000 r/min for 15 min. The supernatant was collected as a sample to be tested for IL-1β activity.

| Structure (SMILES) | Nuclei count (retinal vascular endothelial nuclei, average per section per eyeball) [1] | Inhibition rate (corneal neovascularization) [2] [%] | MVD (corneal microvessel density) [2] | Area of neovascular plexus (mm^2) [3] [mm^2] | Inhibition rate (%) [3] [%**] | Inhibition rate (%) ([4]; dose 0.05 μM) [%*] | A570 nm-A630 nm ([4]; dose 0.05 μM) | Inhibition rate (%) ([4]; dose 0.1 μM) [%**] | A570 nm-A630 nm ([4]; dose 0.1 μM) | Inhibition rate (%) ([4]; dose 0.2 μM) [%*] | A570 nm-A630 nm ([4]; dose 0.2 μM) | Inhibition rate ([5]; dose 0.05 μM) [%] | IL-1β ([5]; dose 0.05 μM) [pg/mL] | Inhibition rate ([5]; dose 0.1 μM) [%] | IL-1β ([5]; dose 0.1 μM) [pg/mL] | Inhibition rate ([5]; dose 0.2 μM) [%] | IL-1β ([5]; dose 0.2 μM) [pg/mL] | retinal vascular endothelial nuclei count ([1]; dose 0.05 μm, vitreous injection) |
| --- | --- | --- | --- | --- | --- | --- | --- | --- | --- | --- | --- | --- | --- | --- | --- | --- | --- | --- |
| C[C@H](NC(=O)CNC(=O)[C@H](CCCNC(=N)N)NC(=O)CCc1cccc(N2C(=O)C=CC2=O)c1)C(=O)N[C@@H](CC(=O)O)C(=O)N[C@@H](CCCNC(=N)N)C(=O)N[C@@H](C)C(=O)NCC(=O)NCC(=O)NCC(=O)NCC(=O)N[C@@H](CCCNC(=N)N)C(=O)NCC(=O)N[C@@H](CC(=O)O)C(=O)O [X26] (X79-RGADRAGGGGRGD-OH) | 8.343 ± 2.131 | 44.32 | 37.44 ± 4.646 | 0.104 ± 0.001 | 50.94 | 41.47 | 0.7736 ± 0.06908 | 48.48 | 0.6810 ± 0.02943 | 68.51 | 0.4162 ± 0.00082 | 18.26 | 769.33 ± 19.82 | 21.99 | 734.20 ± 13.89 | 29.51 | 663.38 ± 11.96 |  |
| C[C@H](NC(=O)CNC(=O)[C@H](CCCNC(=N)N)NC(=O)CCCCCCCc1ccccc1N1C(=O)C=CC1=O)C(=O)N[C@@H](CC(=O)O)C(=O)N[C@@H](CCCNC(=N)N)C(=O)N[C@@H](C)C(=O)NCC(=O)NCC(=O)NCC(=O)NCC(=O)N[C@@H](CCCNC(=N)N)C(=O)NCC(=O)N[C@@H](CC(=O)O)C(=O)O [X19] (X52-RGADRAGGGGRGD-OH) | 7.236 ± 1.218 | 41.43 | 39.38 ± 4.833 | 0.083 ± 0.019 | 60.85 | 51.03 | 0.6472 ± 0.01829 | 63.29 | 0.4852 ± 0.07133 | 64.71 | 0.4664 ± 0.01886 | 37.19 | 591.13 ± 10.54 | 37.27 | 590.42 ± 10.34 | 37.39 | 589.21 ± 12.08 |  |
| C[C@H](NC(=O)CNC(=O)[C@H](CCCNC(=N)N)NC(=O)CCCCCCCCCCCc1ccccc1N1C(=O)C=CC1=O)C(=O)N[C@@H](CC(=O)O)C(=O)N[C@@H](CCCNC(=N)N)C(=O)N[C@@H](C)C(=O)NCC(=O)NCC(=O)NCC(=O)NCC(=O)N[C@@H](CCCNC(=N)N)C(=O)NCC(=O)N[C@@H](CC(=O)O)C(=O)O [X23] (X68-RGADRAGGGGRGD-OH) | 8.275 ± 1.713 | 46.95 | 35.67 ± 6.861 | 0.101 ± 0.002 | 52.36 | 45.59 | 0.7191 ± 0.07483 | 46.74 | 0.7043 ± 0.07872 | 48.91 | 0.6753 ± 0.00095 | 15.69 | 793.48 ± 19.42 | 30.92 | 650.17 ± 14.98 | 33.74 | 623.64 ± 12.33 |  |
| C[C@H](NC(=O)CNC(=O)[C@H](CCCNC(=N)N)NC(=O)CCCCCc1ccccc1N1C(=O)C=CC1=O)C(=O)N[C@@H](CC(=O)O)C(=O)N[C@@H](CCCNC(=N)N)C(=O)N[C@@H](C)C(=O)NCC(=O)NCC(=O)NCC(=O)NCC(=O)N[C@@H](CCCNC(=N)N)C(=O)NCC(=O)N[C@@H](CC(=O)O)C(=O)O [X17] (X49-RGADRAGGGGRGD-OH) | 7.012 ± 1.321 | 48.05 | 34.93 ± 4.725 | 0.084 ± 0.009 | 60.38 | 55.10 | 0.5934 ± 0.03887 | 62.16 | 0.5001 ± 0.02347 | 65.08 | 0.4616 ± 0.02184 | 16.02 | 790.35 ± 11.07 | 43.57 | 531.11 ± 17.61 | 43.90 | 528.00 ± 10.53 | 7.012±1.321 |
